In patent publication US20040019430A1, “Methods and systems for analyzing complex biological systems” (priority 2001, published 2004):
“Also recorded” adds a separate entry of the source.

Key:
[1] = test system: Arabidopsis thaliana plants; assay: SOA1 phenotypic analysis of herbicide-treated Arabidopsis plants (MIC, Tmic, leaf traits); assay type: in vivo; details: for Characteristic symptoms (phenotype): herbicide treated Arabidopsis; for Dev. leafCurling / Dev. leafTwisting / Dev. matureLeafAnthocyanins / Dev. matureLeafChlorosis / Dev. matureLeafNecrosis / Dev. newLeafAnthocyanins / Dev. newLeafChlorosis / Dev. newLeafNecrosis / Dev. pointedLeaves: numeric value standardized to mock treated; for Dev. leafWidth: numeric value standardized to the average response for the mock treated tissues; for Symptom Class: three-week-old Arabidopsis plants treated with herbicide, phenotype classes of FIG. 12
Arabidopsis thaliana [2] = assay: MOA1 phenotypic profiling of Arabidopsis sprayed with unknown and commercial herbicides; assay type: in vivo
[3] = test system: N-starved Arabidopsis plants; details: nitrate addition to N-starved Arabidopsis; cited from earlier work
Arabidopsis thaliana [4] = assay: MOA1 biochemical (metabolite) profiling by LC-MS and GC-MS; details: for Stress-related (commonly regulated) metabolites: MOA1, 20 min and 1 hr after spraying

| Compound | Dev. tMic [1] | Characteristic symptoms (phenotype) [1] | Dev. leafCurling [1] | Dev. leafTwisting [1] | Dev. matureLeafAnthocyanins [1] | Dev. matureLeafChlorosis [1] | Dev. matureLeafNecrosis [1] | Dev. newLeafAnthocyanins [1] | Dev. newLeafChlorosis [1] | Dev. newLeafNecrosis [1] | Dev. pointedLeaves [1] | Dev. leafWidth [1] | other results |
| --- | --- | --- | --- | --- | --- | --- | --- | --- | --- | --- | --- | --- | --- |
| CC(C)N1C(=O)c2ccccc2NS1(=O)=O [Bentazon] | 1 | rapid and widespread leaf necrosis | 2 | 0 | 0 | 2 | 4 | 0 | 2 | 4 | 1 | −2 | – |
| c1cc[n+]2c(c1)-c1cccc[n+]1CC2 [Diquat] | 2 | rapid and widespread leaf necrosis | 2 | 0 | 0 | 1 | 4 | 0 | 1 | 4 | 1 | −2 | Symptom Class [1]: 7 |
| COc1nc(C)nc(NC(=O)NS(=O)(=O)c2ccccc2Cl)n1 [Chlorsulfuron] | 2 | anthocyanin accumulation in the older leaves accompanied by chlorosis of the newly emerging leaves | 1 | 1 | 3 | 2 | 0 | 0 | 2 | 0 | 0 | −1 | – |
| O=C(O)c1cc(Oc2ccc(C(F)(F)F)cc2Cl)ccc1[N+](=O)[O-] [Acifluorfen] | 1 | Necrotic leaf flecks | 1 | 0 | 0 | 0 | 1 | 0 | 0 | 3 | 0 | 0 | – |
| CCNc1nc(Cl)nc(NC(C)C)n1 [Atrazine] | 1 | rapid and widespread leaf necrosis | 1 | 0 | 0 | 1 | 4 | 0 | 1 | 4 | 1 | −1 | – |
| O=C(O)Cn1c(=O)sc2cccc(Cl)c21 [Benazolin] | 2 | – | 2 | 2 | 0 | 0 | 0 | 0 | 0 | 0 | 0 | −2 | – |
| COc1c(Cl)ccc(Cl)c1C(=O)O [Dicamba] | 2 | – | 2 | 2 | 0 | 2 | 0 | 0 | 0 | 0 | 0 | −2 | – |
| C[n+]1ccc(-c2cc[n+](C)cc2)cc1 [Paraquat] | 2 | rapid and widespread leaf necrosis | 2 | 0 | 0 | 1 | 4 | 0 | 1 | 4 | 1 | −1 | Symptom Class [1]: 7 |
| Nc1nc[nH]n1 [Amitrole] | 2 | leaf bleaching and leaf enlargement | −1 | 0 | 0 | 3 | 0 | 0 | 4 | 0 | 0 | 2 | Hierarchical cluster analysis of the eleven phenotypic characteristics / phenotype (Arabidopsis thaliana [2]; Ward's method): exhibited chlorosis and not true bleaching |
| CSc1nnc(C(C)(C)C)c(=O)n1N [Metribuzin] | 1 | rapid and widespread leaf necrosis | 1 | 0 | 0 | 2 | 4 | 0 | 2 | 4 | 1 | −2 | – |
| O=C(O)COc1ccc(Cl)cc1Cl [2,4-D] | 2 | – | 1 | 2 | 1 | 2 | 0 | 0 | 1 | 0 | 0 | −1 | Symptom Class [1]: 5 |
| CN(C)C(=O)Nc1ccc(Cl)c(Cl)c1 [Diuron] | 1 | rapid and widespread leaf necrosis | 1 | 0 | 0 | 2 | 4 | 0 | 2 | 4 | 1 | −2 | Symptom Class [1]: 7 |
| O=[N+]([O-])O [Nitrate, nitrate] | – | – | – | – | – | – | – | – | – | – | – | – | Nitrate Regulation of Glutamate synthetase [3]: ↑; Nitrate Regulation of Glutamine synthetase (2) [3]: ↑; Nitrate Regulation of MADs Box (2) [3]: ↓; Nitrate Regulation of MYB transcription factor [3]: ↑; Nitrate Regulation of Malate Dehydrogenase [3]: ↑; Nitrate Regulation of Nitrate transporter [3]: ↑; Nitrate Regulation of Phosphate transporter [3]: ↑; Nitrate Regulation of Transaldolase [3]: ↑; Nitrate Regulation of Transketolase [3]: ↑ |
| CCSC(=O)N(CC(C)C)CC(C)C [Butylate] | – | – | – | – | – | – | – | – | – | – | – | – | Herbicidal phenotype (Arabidopsis thaliana [2]): neither showed a strong herbicidal phenotype; Stress-related (commonly regulated) metabolites (Arabidopsis thaliana [4]): neither butylate nor chlorpropham treatment resulted in many changes |
| CC(C)C1(C)N=C(c2ncccc2C(=O)O)NC1=O (stereo not drawn) [Imazapyr] | 2 | anthocyanin accumulation in the older leaves accompanied by chlorosis of the newly emerging leaves | 0 | 0 | 2 | 0 | 0 | 0 | 2 | 0 | 0 | 0 | Stress-related (commonly regulated) metabolites (Arabidopsis thaliana [4]): Only a few, if any, stress-related metabolites were observed |
| CS(=O)(=O)c1cc(C(F)(F)F)ccc1C(=O)c1cnoc1C1CC1 [Isoxaflutole] | – | – | – | – | – | – | – | – | – | – | – | – | Alpha-tocopherol levels (Arabidopsis thaliana [4]; relative to control, early time points): not significantly changed relative to the control; Tyrosine and phenylalanine levels (Arabidopsis thaliana [4]; relative to control, early time points, 1 hr): up-regulated relative to the control; also recorded: began to accumulate relative to the control after one hour |
| CC(C)OC(=O)Nc1cccc(Cl)c1 [Chloropropham] | – | – | – | – | – | – | – | – | – | – | – | – | Herbicidal phenotype (Arabidopsis thaliana [2]): neither showed a strong herbicidal phenotype; Stress-related (commonly regulated) metabolites (Arabidopsis thaliana [4]): neither butylate nor chlorpropham treatment resulted in many changes |
| COC(=O)c1cc(Oc2ccc(Cl)cc2Cl)ccc1[N+](=O)[O-] [Bifenox] | 1 | Necrotic leaf flecks | 1 | 0 | 0 | 0 | 1 | 0 | 0 | 3 | 0 | 0 | – |
| CCc1cccc(C)c1N(C(=O)CCl)C(C)COC (stereo not drawn) [Metolachlor] | 2 | – | 2 | 1 | 0 | 0 | 3 | 0 | 0 | 3 | 1 | −1 | – |
| CCc1cnc(C2=NC(C)(C(C)C)C(=O)N2)c(C(=O)O)c1 (stereo not drawn) [Imazethapyr] | 2 | anthocyanin accumulation in the older leaves accompanied by chlorosis of the newly emerging leaves | 1 | 1 | 3 | 0 | 0 | 0 | 2 | 0 | 0 | 0 | – |
| CNc1cnn(-c2cccc(C(F)(F)F)c2)c(=O)c1Cl [Norfluazon, norflurazon] | – | – | – | – | – | – | – | – | – | – | – | – | Stress-related (commonly regulated) metabolites (Arabidopsis thaliana [4]): Only a few, if any, stress-related metabolites were observed |
